Data on one compound can be found in PMC8741257, “Identification of novel non-toxic and anti-angiogenic α-fluorinated chalcones as potent colchicine binding site inhibitors” (Journal of Enzyme Inhibition and Medicinal Chemistry, 2022).

In one test the test system is HUVECs. As to the kind of experiment: Tube formation assay on Matrigel. The class given is cell-based, human. To be noted: 2.5 µM. Here is the method: The formation of HUVEC tube represents the key steps in angiogenesis. Thus, we further tested the anti-vascular activity of 4c by performing a tube formation assay. As shown in Figure 10 HUVECs in the control group formed integrated tubules with multicentric junctions on the Matrigel matrix, while the tubes were fragmentary after exposure to 4c.
The matrix gel was thawed overnight at 4 °C and then added to 96 well plates. After incubated at 37 °C for 45 min, the matrix gel was solidified. Different concentrations of 4c were added to each well at the density of HUVECs was 1 × 10^5/well. After incubated at 37 °C for 6–8 h, the formation of tubules was observed under microscope

Test [1] deals with MGC-803 cells. The experiment in a line: Wound healing migration assay. The class given is cell-based, human. The conditions noted are these: 72 nM, after 48 h, control approximately 64%. Here is the method: (§1) Metastasis is one of the leading causes of morbidity and mortality of cancer patients. Microtubules-targeting inhibitors have also been reported to interfere with cell migration and invasion. Accordingly, the in vitro would healing assay and Transwell assays were performed to investigate the inhibitory effect of compound 4c on the migration and invasion of MGC-803 cells. As shown Figure 8(A,C), the scratches healing rate in the control group was approximately 64%. By contrast, the cells treated with 4c have much smaller scratched areas recovery at all concentrations. […] Cell invasion is an important malignant behaviour during cancer metastasis. In Tanswell assay, MGC-803 cells were seeded into upper chambers with pre-coated Matrigel stimulating base membrane in order to assess the cellular invasion.
(§2) MGC-803 cells and HUVECs were seeded in 24-well plates and cultivated for 24 h at 37 °C. The cells were scribed vertically with a gun tip and washed with PBS to remove dead cells. The containing different concentrations of 4c were added to the scratched monolayers. The migrated cells were photographed under a light microscope at indicated time points from the scratch. Take a picture and use the image J software to calculate the area of the cell scratches.

For test [2], the system named is MGC-803 cells. As to the kind of experiment: Transwell cell invasion assay. The format is cell-based, human. The conditions noted are these: compared with control group. As for the experimental part: as §1
Matrix gel was thawed overnight at 4 °C. […] Transwell was placed into a 24-well plate, 35% acetic acid (300 μL) was added to the upper chamber of the chamber, and after acetic acid completely entered the lower chamber, 100 μL of acetic acid from the lower chamber was aspirated into a 96-well plate, and three replicate wells of each concentration were shaken for 10 min, and the absorbance was measured at 560 nm with an enzyme marker.

In a further test the test system is tubulin. The experiment in a line: Tubulin polymerisation assay in vitro. The class given is biochemical. The conditions noted are these: 6 µM of 4c; colchicine 4 µM as positive control; fluorescence intensity. As for the experimental part: The microtubule kinetic experiments were performed with 4 µM of colchicine as a positive control and 6 µM of 4c as the experimental group according to the method originally described by J. M. Andreu et al. with some modifications. Purified and unpolymerised tubulin was incubated with the tested compounds and the increased tendency of fluorescence intensity shown in control samples was obviously slowed down.

In test [3] the test system is THP-1-derived macrophages. As to the kind of experiment: Growth inhibition of normal human cells. The format is cell-based. To be noted: Macrophage, triplicate, mean ± SD. As for the experimental part: (§3) The effect of compound 4c on three types of normal human cell lines including LO2 (human hepatocyte cells), 293 T (human embryonic kidney cell) and THP-1-derived macrophages was then determined.

In test [4] the test system is 293 T (human embryonic kidney cell). The experiment in a line: Growth inhibition of normal human cells. The class given is cell-based. The conditions noted are these: HEK-293T, triplicate, mean ± SD. As for the experimental part: as §3
Test [5] deals with LO2 (human hepatocyte cells). As to the kind of experiment: Growth inhibition of normal human cells. The format is cell-based. The conditions noted are these: triplicate, mean ± SD. Here is the method: as §3
Test [6] deals with six human cancer cell lines (MCF-7, MGC-803, HepG2, Hela, A549, U937). The experiment in a line: Antiproliferative activity, summary over the tested cancer cell lines. The format is cell-based. The conditions noted are these: read-out: IC50. Here is the method:
A549, MGC-803, MCF-7, HepG2 and Hela cells were seeded at the appropriate cell line density (3 × 10^3 to 4 × 10^3 cells/well). The cells were then incubated at 37 °C for 24 h in a humidified 5%CO2 in 96-well plates prior to experiments. After a further 72 h of incubation, cell proliferation was quantified with SRB ([…]) to determine the number of surviving cells. The absorbance at 560 nm was measured by microplate. The experiment was repeated three times, and the data were listed in the form of mean and standard deviation.
MGC-803 cells were collected and seeded into 96 well plates at a density of 8000/well. The mediums containing drugs and cell suspension were added into the well. The cells were incubated in 5% CO2 incubator at 37 °C for 72 h. Each well was added 10 µL CCK8 solution, and the incubation time was 3–4 h. The absorbance value at 450 nm was measured by microplate reader. Data are calculated with GraphPad Prism5 software.

Test [7] relates to HUVECs (human umbilical vein endothelial cells). As to the kind of experiment: Wound healing migration assay. The conditions noted are these: 10 µM, 48 h, control 65%. The format is cell-based. Here is the method: HUVECs (human umbilical vein endothelial cells) grown on Matrigel were commonly used as a tube formation model for studying the physiological and pathological processes of the vascular system in vitro, and a widely studied human endothelial cell type in angiogenesis. The effect of 4c on endothelial cell migration was assessed by using HUVECs. Standardised wounds were made in confluent monolayers of HUVECs and then exposed to compound 4c at 2.5, 5 and 10 µM for 48 h. […] We further evaluated the capacity of 4 s on endothelial cell invasion using a Transwell assay.
as §2

The subject of test [8] is MGC-803 cells. The experiment in a line: Cell apoptosis assay (Annexin V/PI, flow cytometry). The format is cell-based, human. The conditions noted are these: 48 h, control 1.99%. As for the experimental part: According to above-mentioned cell cycle analysis, we suppose that 4c might induce cells apoptosis, like other microtubule polymerisation inhibitors. Thus, the effects of 4c on MGC-803 cell apoptosis were examined by flow cytometry.
MGC-803 cells at 8 × 10^4 cells/well were seeded in 12-well cell culture plates overnight, and then the cultured cells were incubated with a dose range of compounds 4c for 48 h. The treated or untreated cells were washed twice with PBS and stained by Annexin V-PE and PI for 15 min without light exposure according to the manufacturer’s protocol. Apoptosis was quantified using a flow cytometer (Becton, Dickinson and Company, USA).
A general note: Flow cytometry measures light scatter and fluorescence of single cells or particles in a stream.

Where two headings read alike, the source gives them in different places.

Broadly, the IC50 is the concentration that gives 50% inhibition. On to `COc1cc(C(=O)/C(F)=C/c2c[nH]c3cc(Br)ccc23)cc(OC)c1OC` [4c, (Z)-3–(6-bromo-1H-indol-3-yl)-2-fluoro-1–(3,4,5-trimethoxyphenyl)prop-2-en-1-one], for which, in the test on HUVECs, the “HUVEC cord formation, tube area and length” value is given as “dramatically suppressed”. For the same compound, the “migration rates (scratch healing)” value in the test on MGC-803 cells [1] is listed as 10%. Also, in the test with MGC-803 cells [2], the “invasion ability (Transwell, Matrigel)” value is on record as “significant reduced invasion ability”. Also, the “Effect on tubulin polymerisation in vitro” value in the test on tubulin is reported as “exhibited a similar action to that of colchicine”. Further, the IC50 in [3] is 1210 ± 17 nM; in [4], 1050 ± 220 nM; in test [5] it was 680 ± 220 nM; in test [6] (against five of the tested cell lines, range), 25 to 202 nM; in test [6] (against six cell lines, range as worded in text), 25 to 254 nM. The wound closure rates in test [7] turned out to be 11%. Further, the “percentage of apoptotic cells” value was 19.12% in the test with MGC-803 cells [8] (18 nM (lowest dose)) and 57.99% with MGC-803 cells [8] (72 nM (highest dose)).
